What was measured:
Histone deacetylase = assay: Inhibition of human HDAC in HeLa cells by flour de lys assay; type: cell-based
DU-145 [1] = assay: Viability of human DU145 cells after 72 hrs by MTS assay; type: functional, cell-based; conditions: DU-145, 72 h
DU-145 [2] = assay: Viability of human DU145 cells after 72 hrs by trypan blue staining; type: functional, cell-based; conditions: DU-145, 72 h

Compound | IC50 (Histone deacetylase) [nM] | EC50 (DU-145 [1]) [nM] | EC50 (DU-145 [2]) [nM]
COc1ccc(-c2cn(CCCCCC(=O)NO)nn2)cc1 | 2.09 | – | –
COc1ccccc1-c1cn(CCCCCC(=O)NO)nn1 | 76 | – | –
COc1cccc(OC)c1-c1cn(CCCCCC(=O)NO)nn1 | 315.9 | – | –
O=C(CCCCCn1cc(-c2ccc(-c3ccncc3)cc2)nn1)NO | 2.3 | 3070 | 4720
O=C(CCCCCCn1cc(-c2ccc(-c3ccncc3)cc2)nn1)NO | 16.6 | – | –
COc1ccc2cc(-c3cn(CCCCCCC(=O)NO)nn3)ccc2c1 | 15.3 | 3990 | 7760
CN(C)c1ccc(-c2cn(CCCCCC(=O)NO)nn2)cc1 | 4.3 | – | –
CN(C)c1ccc(-c2cn(CCCCCCC(=O)NO)nn2)cc1 | 106.1 | – | –
O=C(CCCCCn1cc(-c2ccc3cccnc3c2)nn1)NO | 151.5 | – | –
COc1ccc2cc(-c3cn(CCCCCC(=O)NO)nn3)ccc2c1 | 1.8 | 2600 | 3950
O=C(CCCCCn1cc(-c2cccs2)nn1)NO | 31.7 | – | –
COc1cccc(-c2cn(CCCCCC(=O)NO)nn2)c1 | 13.9 | – | –
O=C(CCCCCn1cc(-c2ccc3ccccc3n2)nn1)NO | 2.1 | 2460 | 2250
O=C(CCCCCCC(=O)Nc1ccccc1)NO [VORINOSTAT] | – | – | 2120

Next, values leading:

IC50 (Histone deacetylase) [nM] | EC50 (DU-145 [1]) [nM] | EC50 (DU-145 [2]) [nM] | Compound
1.9 | – | – | O=C(CCCCCn1cc(-c2cccc(-c3ccccc3)c2)nn1)NO
5.4 | – | – | O=C(CCCCCCn1cc(-c2cccc(-c3ccccc3)c2)nn1)NO
162.6 | – | – | O=C(CCCCCn1cc(-c2ccccc2-c2ccccc2)nn1)NO
14.2 | – | – | O=C(CCCCCn1cc(-c2ccccc2)nn1)NO
9.6 | – | – | O=C(CCCCCCn1cc(-c2ccccc2)nn1)NO
287.2 | – | – | O=C(CCCCCn1cc(-c2cccnc2)nn1)NO
112.5 | – | – | O=C(CCCCCn1cc(-c2ccncc2)nn1)NO
23.9 | – | – | O=C(CCCCCCn1cc(-c2ccccn2)nn1)NO
17.4 | – | – | Cc1ccccc1-c1cn(CCCCCC(=O)NO)nn1
52.4 | – | – | O=C(CCCCCn1cc(-c2ccc(-c3ccccc3)cc2)nn1)NO
43.4 | – | – | Cc1ccc(-c2cn(CCCCCC(=O)NO)nn2)cc1
31.9 | – | – | Cc1cccc(-c2cn(CCCCCC(=O)NO)nn2)c1
